Results on 40 molecules are retold here after patent US20250026748A1, “N-(5-SUBSTITUTED-[(1,3,4-THIADIAZOLYL) OR (THIAZOLYL)])(SUBSTITUTED)CARBOXAMIDE COMPOUNDS AND USE THEREOF FOR INHIBITING HUMAN POLYMERASE THETA” (Repare Therapeutics Inc., priority 2021, published 2025).

Bounds are passed on as bounds.

For this test, the target named is PolQ ATPase enzyme (1-894) (Homo sapiens (Human), UniProt O75417). In words: Polθ ATPase enzymatic assay (0.5 nM enzyme concentration), ADP-Glo. The test is classed as biochemical. The conditions noted are these: average IC50; 0.5 nM PolQ ATPase enzyme (1-894). The procedure: PolQ ATPase enzyme (1-894) at 0.5 nM is incubated with a 10-point concentration response of inhibitors for 15 min at rt in the following buffer: 50 mM Tris Cl pH 7.5, 10% glycerol, 5 mM DTT, 10 mM MgCl2, 0.1 mg/ml BSA. Following pre-incubation with inhibitors, DNA (Fork C) at 20 nM and ATP at 100 μM are added to start the reaction. Enzymatic reaction proceeds at rt for 180 min ATP consumption is measured using the ADP-Glo assay from Promega. Luminescence is read on the Envision and IC50 are determined using the variable slope 4-parameters equation.
Sequence of PolQ ATPase enzyme (1-894) (O75417 1-894): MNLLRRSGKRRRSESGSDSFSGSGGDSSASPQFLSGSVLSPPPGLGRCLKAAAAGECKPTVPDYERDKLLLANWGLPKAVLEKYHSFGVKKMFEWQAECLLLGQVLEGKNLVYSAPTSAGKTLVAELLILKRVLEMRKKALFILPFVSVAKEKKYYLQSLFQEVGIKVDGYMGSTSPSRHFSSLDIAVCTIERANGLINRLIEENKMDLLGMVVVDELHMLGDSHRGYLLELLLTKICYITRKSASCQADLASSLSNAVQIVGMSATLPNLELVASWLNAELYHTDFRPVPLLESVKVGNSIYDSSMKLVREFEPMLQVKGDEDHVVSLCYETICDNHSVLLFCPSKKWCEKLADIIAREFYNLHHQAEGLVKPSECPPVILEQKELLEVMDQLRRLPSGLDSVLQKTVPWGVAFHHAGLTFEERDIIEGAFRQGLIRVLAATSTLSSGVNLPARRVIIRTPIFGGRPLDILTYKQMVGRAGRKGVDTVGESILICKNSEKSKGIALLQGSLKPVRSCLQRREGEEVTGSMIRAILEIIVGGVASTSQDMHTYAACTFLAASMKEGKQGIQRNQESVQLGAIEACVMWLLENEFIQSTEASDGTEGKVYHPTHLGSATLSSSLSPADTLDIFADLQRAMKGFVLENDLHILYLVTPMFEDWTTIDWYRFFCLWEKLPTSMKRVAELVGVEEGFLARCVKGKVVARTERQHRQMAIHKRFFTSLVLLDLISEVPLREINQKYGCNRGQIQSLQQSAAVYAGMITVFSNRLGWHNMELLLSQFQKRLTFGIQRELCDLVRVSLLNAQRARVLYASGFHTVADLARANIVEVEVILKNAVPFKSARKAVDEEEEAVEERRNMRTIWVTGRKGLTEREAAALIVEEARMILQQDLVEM
Oligos are annealed by heating at 9500 for 5 min in the following buffer (10 mM Tris-HCl pH7.5, 50 mM NaCl, 1 mM EDTA) and cooled to rt. […]
(In ADP-Glo the light output rises with the ADP produced.)
As usually defined, the IC50 is the concentration that gives 50% inhibition. A higher IC50 goes with lower potency. On to `COc1cnc(C(F)F)cc1-c1cc(C#CCN2CCOCC2)ccc1C(=O)Nc1nnc(C#CC2CC2)s1` [Compound 219], for which the half-inhibitory concentration (IC50) is below 0.25 nM. Next, `Cc1ccn(-c2cc(-c3cc(C(F)F)ncc3Cl)c(C(=O)Nc3nnc(C#CC4CC4)s3)cn2)c(=O)c1` [Compound 448]: below 0.25 nM; `COc1cnc(Cl)cc1-c1cn(CC(=O)N(C)C)c(=O)cc1C(=O)Nc1nnc(C#CC2CC2)s1` [Compound 99]: 0.36 nM; `CNC(=O)Cn1cc(-c2cc(C(F)(F)F)ccc2OC)c(C(=O)Nc2nnc(C3CC3c3ccc(C#N)cc3)s2)cc1=O` (stereo not shown) [Compound 92]: 0.25 nM. For `COc1cnc(C(F)F)cc1-c1cc(-n2ccncc2=O)ccc1C(=O)Nc1nnc(C#CC2CC2)s1` [Compound 163] the value was below 0.25 nM.

For the molecule `COc1cnc(C(F)F)cc1-c1cnccc1C(=O)Nc1nnc(C#CC2CC2)s1` [Compound 31, N-(5-(cyclopropylethynyl)-1,3,4-thiadiazol-2-yl)-2′-(difluoromethyl)-5′-methoxy-[3,4′-bipyridine]-4-carboxamide], the IC50 is 0.63 nM. On to `COc1cnc(C(F)F)cc1-c1cc(-n2nccc(C)c2=O)ncc1C(=O)Nc1nnc(C#CC2CC2)s1` [Compound 453], for which the IC50 is below 0.25 nM. Molecule `COc1ccc(C(F)(F)F)cc1-c1cnccc1C(=O)Nc1nnc(C#Cc2cc(C)[nH]n2)s1` [Compound 27, 3-[2-methoxy-5-(trifluoromethyl)phenyl]-N-[5-[2-(5-methyl-1H-pyrazol-3-yl)ethynyl]-1,3,4-thiadiazol-2-yl]pyridine-4-carboxamide] came in with an IC50 of 0.26 nM. As for `COc1cnc(C(F)F)cc1-c1cc(N2CCN(C)CC2=O)ccc1C(=O)Nc1nnc(C#CC2CC2)s1` [Compound 109, N-(5-(cyclopropylethynyl)-1,3,4-thiadiazol-2-yl)-2-(2-(difluoromethyl)-5-methoxypyridin-4-yl)-4-(4-methyl-2-oxopiperazin-1-yl)benzamide], the IC50 was below 0.25 nM. `[2H]C([2H])([2H])N(C(C)=O)c1ccc(C(=O)Nc2nnc(C#CC3CC34CC4)s2)c(-c2cc(C(F)F)ncc2OC)c1` (stereo not shown) [Compound 237]: the IC50 was below 0.25 nM. In turn, `COc1cnc(C(F)F)cc1-c1cc(C#CC2CCOCC2)ncc1C(=O)Nc1nnc(C#Cc2cc(C)[nH]n2)s1` [Compound 378] gave an IC50 below 0.25 nM.

`COc1cnc(C(F)F)cc1-c1cc(-c2ccn(C)n2)cnc1C(=O)Nc1nnc(C#CC2CC2)s1` [Compound 156] registered an IC50 of 1.1 nM. This lies in the single-digit nanomolar range. Next, `Cn1cc(-c2cc(Cl)ncc2OC(F)F)c(C(=O)Nc2nnc(C#CC3CC3)s2)cc1=O` [Compound 74]: 0.73 nM; `COc1cnc(C(F)F)cc1-c1cc(N2CCCOC2=O)ncc1C(=O)Nc1nnc(C#CC2CC2)s1` [Compound 167]: below 0.25 nM. `COc1cnc(Cl)cc1-c1cc(N2CCN(C)C2=O)ccc1C(=O)Nc1nnc(C#CC2CC2)s1` [Compound 295]: inhibition was half-maximal at 2.7 nM (IC50). This lies in the single-digit nanomolar range. With `COc1cnc(C(F)F)cc1-c1cc(C#CC2(C(=O)N(C)C)CC2)ncc1C(=O)Nc1ncc(C#CC2CC2)s1` [Compound 210], the IC50 is below 0.25 nM.

The molecule `COc1ccc(C(F)(F)F)cc1-c1cc(N2CCCC2=O)ncc1C(=O)Nc1nnc(C#CC2CC2)s1` [Compound 290] registered an IC50 of 7.3 nM. `COc1cnc(C(F)F)cc1-c1cc(OC[C@H]2CCCO2)ncc1C(=O)Nc1nnc(C#CC2CC2)s1` [Compound 186] came in with an IC50 of 0.79 nM. In the case of `COc1cnc(C(F)F)cc1-c1cc(N2C(=O)[C@H]3CC[C@@H]2C3)ncc1C(=O)Nc1nnc(C#CC2CC2)s1` [Compound 365], the midpoint of inhibition, the IC50, lay at 100 nM.

Turning to `Cc1nnc(Cn2cc(-c3cc(C(F)F)ccc3Cl)c(C(=O)Nc3ncc(C#CC4CC4)s3)cc2=O)o1` [Compound 114, 5-(2-chloro-5-(difluoromethyl)phenyl)-N-(5-(cyclopropylethynyl)thiazol-2-yl)-1-((5-methyl-1,3,4-oxadiazol-2-yl)methyl)-2-oxo-1,2-dihydropyridine-4-carboxamide], it took 0.26 nM to reach half-maximal inhibition (IC50). For `COc1ccc(C(F)F)cc1-c1cn2cc(C(=O)N(C)C)nc2cc1C(=O)Nc1nnc(C#CC2CC2)s1` [Compound 324] the value was 0.4 nM.

In turn, `COc1cnc(C(F)F)cc1-c1cc(N2CCC(n3ccnc3)CC2)ncc1C(=O)Nc1nnc(C#CC2CC2)s1` [Compound 125] displayed an IC50 of 21 nM. Next, `COc1cnc(C(F)F)cc1-c1cc(OCCOC(F)F)ncc1C(=O)Nc1nnc(C#CC2CC2)s1` [Compound 181]: 0.75 nM. `COc1cnc(C(F)F)cc1-c1cc(-c2ccn(C)n2)ncc1C(=O)Nc1nc(C)c(C#CC2CC2)s1` [Compound 157] showed an IC50 of 115 nM. Next, `COc1ncc(C(F)(F)F)cc1-c1cnccc1C(=O)Nc1nnc(C#Cc2cc(C)[nH]n2)s1` [Compound 88]: 2.4 nM. Next, `COc1cnc(C(F)F)cc1-c1cc(-c2ccn(C)n2)ncc1C(=O)Nc1nnc(C#Cc2cc(C)[nH]n2)s1` [Compound 161]: below 0.25 nM; `COc1cnc(Cl)cc1-c1cc(C#CC2(O)CCS(=O)(=O)CC2)ccc1C(=O)Nc1nnc(C#CC2CC2)s1` [Compound 288]: below 0.25 nM. Next, `COc1cnc(C(F)F)cc1-c1cc(C#CC2(n3cccn3)CC2)ncc1C(=O)Nc1nnc(C#CC2CC2)s1` [Compound 233]: below 0.25 nM; `COc1cnc(C(F)F)cc1-c1cc(-c2cnn(C3CCOCC3)c2)ncc1C(=O)Nc1nnc(C#CC2CC2)s1` [Compound 355]: 0.3 nM; `COc1cnc(C(F)F)cc1-c1cc(N2CCN(C(=O)OC(C)(C)C)CC2=O)ccc1C(=O)Nc1nnc(C#CC2CC2)s1` [Compound 144]: 0.26 nM.

For `COc1cnc(C(F)F)cc1-c1cc(N2CC3(CCC2=O)CC3)ncc1C(=O)Nc1nnc(C#CC2CC2)s1` [Compound 426], the IC50 was 0.39 nM. For `COc1cnc(C(F)F)cc1-c1cc(CC(=O)N(C)C)ncc1C(=O)Nc1nc(C)c(C#CC2CC2)s1` [Compound 179], the IC50 turned out to be 1.6 nM. As to `O=C(Nc1nnc(C#CC2CC2)s1)c1cc(=O)n(Cc2nccs2)cc1-c1cc(C(F)(F)F)ccc1Cl` [Compound 65], the IC50 turned out to be 2.2 nM. Next, `COc1cnc(C(F)F)cc1-c1cc(N2CC[C@H]3C[C@H]3C2=O)ncc1C(=O)Nc1nnc(C#CC2CC2)s1` [Compound 383]: below 0.25 nM.

In the case of `COc1cnc(C(F)F)cc1-c1cn2ncnc2cc1C(=O)Nc1nnc(C#CC2CC2)s1` [Compound 36, N-(5-(cyclopropylethynyl)-1,3,4-thiadiazol-2-yl)-6-(2-(difluoromethyl)-5-methoxypyridin-4-yl)-[1,2,4]triazolo[1,5-a]pyridine-7-carboxamide], the midpoint of inhibition, the IC50, lay at 6.6 nM. In turn, `COc1ccc(C(F)(F)F)cc1-c1cc(-c2ccn(C)n2)ncc1C(=O)Nc1nnc(C#CC2CC2)s1` [Compound 308] came in with a half-maximal inhibitory concentration (IC50) of 0.42 nM. Regarding `COc1ccc(C(F)(F)F)cc1-c1cn(C2COC2)c(=O)cc1C(=O)Nc1nnc(C#Cc2cc(C)[nH]n2)s1` [Compound 78], the IC50 was 2.71 nM. This IC50 is about 6.5-fold higher than that of the molecule before.

`COc1cnc(Cl)cc1-c1cc(N2CCCS2(=O)=O)ccc1C(=O)Nc1nnc(C#CC2CC2)s1` [Compound 311] registered an IC50 of 8.1 nM.

On to `COc1cnc(Cl)cc1-c1cn2ncnc2cc1C(=O)Nc1nnc(C#Cc2cc(C)[nH]n2)s1` [Compound 97], for which the IC50 was 2 nM. Next, `COc1cnc(C(F)F)cc1-c1cc(C#CCN(C)C)ccc1C(=O)Nc1nnc(C#CC2CC2)s1` [Compound 236]: 0.56 nM.
